Assay results from paper PMC12567066, “Sustainable Synthesis of 1,2-Disubstituted Benzimidazoles as Promising α-Glucosidase Inhibitors: In Vitro and In Silico Evaluation” (Pharmaceuticals, 2025).
“Also recorded” adds a separate entry of the source. Where two headings read alike, the source gives them in different places.

Tests used:
hPreP = test system: hPreP; set-up: method as in PMID 24602793; settings: cited from earlier work
α-glucosidase = α-glucosidase (Saccharomyces cerevisiae, UniProt P53341); experiment: biochemical; settings: for inhibition at 50 µM: 0.25 h; for α-Glucosidase % inib. at 50 μM: 15 min
Method: The α-glucosidase assay was performed as previously described. The enzyme from Saccharomyces cerevisiae (0.125 U/mL) solution was dissolved in 0.1 M sodium phosphate buffer (pH 6.8). Twenty microliters of test samples at various concentrations (0.005–50 μM) were mixed with the enzyme solution in microplate wells and incubated for 15 min at 37 °C. Subsequently, 20 μL of […] p-nitrophenyl α-D-glucopyranoside (pNPG) solution in 0.1 M phosphate buffer was added. After incubation at 37 °C for 15 min, the reaction was terminated by adding 50 μL of 0.2 M sodium carbonate solution. α-Glucosidase activity was determined spectrophotometrically at 405 nm on a 96-well microplate reader Fluostar (BMG LABTECH GmbH, Offenburg, Germany) by measuring the amount of p-nitrophenol released. DMSO control was used whenever required and the final concentration of DMSO was maintained below 8% v/v, which was found not to affect the enzyme activity. The IC50 values were determined by the interpolation of dose–response curves (Figure S2, Supplementary Material).
(§1) The percentage of inhibition of enzyme activity, for both enzymes, was calculated as (%) by the following equation: A−B/A × 100, where A represents the difference in the absorbance of the control sample between an incubation time of 0 and 1.0 min, and B represents the test sample’s absorbance difference in the same time range.

Caco-2 cells = experiment: Cell viability MTT assay; assay type: cell-based, human; settings: 1–30 μM, 24 h
Method: Cells were treated with different concentrations of the compounds (1–30 μM) for 24 h and examined using the MTT assay.
The cellular cytotoxicity of compounds was investigated using a 3-(4,5-dimethylthiazol-2-yl)-2,5-diphenyl-tetrazolium bromide (MTT) assay as previously reported, with minor modifications. The CaCo-2 were exposed for 24 h to compounds at concentrations ranging from […]. Then, MTT reagent (0.5 mg/mL in DMEM) was added to each well. The plate was incubated for 3 h at 37 °C. The MTT solution was removed from the culture plate, and 100 μL of DMSO solvent was added to solubilize the water-insoluble formazan crystals formed in the cells. The absorbance was determined at 570 nm using a microplate reader (VANTAstar_BMG LABTECH GmbH, Ortenberg, Germany).

[1] = DPPH radical scavenging assay; settings: mean ± SD, three independent experiments
Method: Radical scavenging activity of the better derivatives was estimated according to the previously reported method with slight modification using the stable DPPH radical.
A solution of 0.1 mM DPPH• radical was added to various concentrations of compounds. The reaction mixture was incubated in the dark for 15 min and, thereafter, the absorbance was recorded at 517 nm (VANTAstar_BMG LABTECH GmbH, Germany). The decrease in absorbance of DPPH•, after addition of test compounds compared to the control, was used to calculate the antioxidant activity.
(§2) For each assay, the decrease in absorbance was used to calculate the antioxidant activity, which was expressed as the ability of the antioxidants to scavenge 50% of radical (EC50).

[2] = ABTS radical scavenging assay; settings: mean ± SD, three independent experiments
Method: This method is based on the capacity of an antioxidant to scavenge the free radical ABTS^+ [50].
Samples of each compound (5 μL) were added to 245 μL of ABTS solution. The reduction in the blue-green radical ABTS^+ by hydrogen-donating antioxidants was evaluated by measuring the absorbance at 734 nm (VANTAstar_BMG LABTECH GmbH, Ortenberg, Germany), after one minute of incubation. All the measurements were carried out at least three times.
as §2

[3] = biological target: T1, α-amylase from porcine pancreas (Sus scrofa, UniProt P00690); experiment: α-amylase inhibition assay (CNPG3 substrate); assay type: biochemical; settings: 10 min, pH 7, mean ± SD, three independent assays, read-out: α-Amylase % inib. at 50 μM
T1 construct: 40 μL of α-amylase from porcine pancreas (1 mg/mL) was used; from tissue; host or cells: porcine pancreas
T1 sequence (P00690 16-511): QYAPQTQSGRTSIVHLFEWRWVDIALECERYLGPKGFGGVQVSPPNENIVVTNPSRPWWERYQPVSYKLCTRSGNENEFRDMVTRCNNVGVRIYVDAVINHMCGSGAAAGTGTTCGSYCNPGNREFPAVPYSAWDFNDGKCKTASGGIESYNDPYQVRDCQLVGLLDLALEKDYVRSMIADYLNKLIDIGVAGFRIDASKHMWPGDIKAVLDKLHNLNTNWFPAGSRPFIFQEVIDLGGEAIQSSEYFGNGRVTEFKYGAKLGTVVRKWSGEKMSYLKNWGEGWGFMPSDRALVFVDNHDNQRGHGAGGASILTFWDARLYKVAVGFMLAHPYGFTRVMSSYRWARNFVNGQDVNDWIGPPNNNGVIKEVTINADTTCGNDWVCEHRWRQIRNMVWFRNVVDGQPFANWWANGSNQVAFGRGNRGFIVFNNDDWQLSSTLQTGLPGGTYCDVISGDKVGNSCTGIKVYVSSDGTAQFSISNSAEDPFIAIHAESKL
Method: The α-amylase assay was conducted as described in previous studies. A reaction mix containing 60 μL of […] sodium phosphate buffer at pH 7.0, 20 μL of 1 M NaCl and 40 μL of α-amylase from porcine pancreas (1 mg/mL) was used. The solution was incubated in the absence or presence of compounds at 37 °C for 10 min. After incubation, 80 μL of a 2.5 μM 2-chloro-4-nitrophenyl α-D-maltotrioside (CNPG3) solution was added as the substrate and 2-chloro-nitrophenol released by the enzymatic hydrolysis was monitored at 405 nm, using a microplate reader (Fluostar BMG LABTECH GmbH, Offenburg, Germany). The results of all the assays described above were expressed as a percentage of the blank control.
as §1

[4] = test system: insulin-degrading enzyme (IDE); set-up: method as in PMID 22355395; settings: towards insulin and β-amyloid, cited from earlier work
V. cholerae = settings: cited from earlier work
B. cereus = test system: B. cereus; set-up: method as in PMID 22047695; settings: cited from earlier work
S. dysenteriae = settings: cited from earlier work
[5] = pH 6.8, 50 μM, mean ± SD, three independent assays, read-out: α-Glucosidase % inib. at 50 μM
[6] = mean ± SD, three independent assays, read-out: α-Glucosidase IC50
[7] = 50 μM, mean ± SD, three independent assays

Chain of α-glucosidase (P53341 whole entry): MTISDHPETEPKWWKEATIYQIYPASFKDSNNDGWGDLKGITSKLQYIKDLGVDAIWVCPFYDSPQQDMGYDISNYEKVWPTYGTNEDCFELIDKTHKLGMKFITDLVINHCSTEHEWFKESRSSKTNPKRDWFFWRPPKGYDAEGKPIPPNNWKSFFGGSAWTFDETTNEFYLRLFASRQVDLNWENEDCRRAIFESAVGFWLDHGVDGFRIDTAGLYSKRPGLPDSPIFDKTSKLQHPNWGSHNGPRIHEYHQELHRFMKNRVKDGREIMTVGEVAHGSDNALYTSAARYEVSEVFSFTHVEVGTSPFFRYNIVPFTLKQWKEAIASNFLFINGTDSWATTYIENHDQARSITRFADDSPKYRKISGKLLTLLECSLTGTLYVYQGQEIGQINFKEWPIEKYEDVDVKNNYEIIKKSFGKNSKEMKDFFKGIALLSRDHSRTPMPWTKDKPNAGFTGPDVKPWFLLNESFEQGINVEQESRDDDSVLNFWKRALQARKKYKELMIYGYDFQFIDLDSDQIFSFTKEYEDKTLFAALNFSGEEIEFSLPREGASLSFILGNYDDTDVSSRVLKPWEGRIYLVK

Compound: O=[N+]([O-])c1ccc2c(c1)nc(-c1cc(Br)ccc1O)n2Cc1cc(Br)ccc1O [III]
- hPreP agonism (hPreP): potent hPreP agonist

Compound: Cc1cccc2c1nc(-c1cc(O)c(O)c(O)c1)n2Cc1cc(O)c(O)c(O)c1 [8s, 5-(4-Methyl-1-(3,4,5-trihydroxybenzyl)-1H-benzo[d]imidazol-2-yl)benzene-1,2,3-triol]
- inhibition at 50 µM (α-glucosidase; [5]): 97.5%
- IC50 (α-glucosidase; [6]): 0.39 ± 0.04 µM
- Cytotoxicity / effect on Caco-2 cell viability (Caco-2 cells): none of these compounds affected Caco-2 cell viability; also recorded: no cytotoxic effects
- EC50 [1]: 7.4 ± 0.2 µM
- EC50 [2]: 4.6 ± 0.2 µM

Compound: Cc1cccc2c1nc(-c1cc(O)ccc1O)n2Cc1cc(O)ccc1O [C00037]
- inhibition at 50 µM (α-glucosidase; [5]): 94.2 ± 2.8%
- inhibition at 50 µM [3]: 1.3 ± 0.3%

Compound: O=[N+]([O-])c1cc(Cn2c(-c3ccc(Cl)c([N+](=O)[O-])c3)nc3ccccc32)ccc1Cl [3k, 1-(4-Chloro-3-nitrobenzyl)-2-(4-chloro-3-nitrophenyl)-1H-benzo[d]imidazole]
- Effect on IDE activity [4]: actively stimulate IDE activity
- Effect on IDE activity ([4]; listed as IV): improves the activity of insulin-degrading enzyme (IDE)

Compound: Cc1cccc2c1nc(-c1cc(O)ccc1O)n2Cc1cc(O)ccc1O [8r, 2-(1-(2,5-Dihydroxybenzyl)-4-methyl-1H-benzo[d]imidazol-2-yl)benzene-1,4-diol]
- IC50 (α-glucosidase; [6]): 13.8 ± 2.7 µM
- Cytotoxicity / effect on Caco-2 cell viability (Caco-2 cells): none of these compounds affected Caco-2 cell viability; also recorded: no cytotoxic effects
- EC50 [1]: 11.4 ± 1.2 µM
- EC50 [2]: 13 ± 0.2 µM

Compound: O=[N+]([O-])c1cc(Cn2c(-c3ccc(Cl)c([N+](=O)[O-])c3)nc3cc(Cl)ccc32)ccc1Cl [C00033]
- inhibition at 50 µM (α-glucosidase; [5]): 17.3 ± 0.4%
- inhibition at 50 µM [3]: 15.8 ± 0.5%

Compound: Oc1ccc(Br)cc1Cn1c(-c2cc(Br)ccc2O)nc2ccccc21 [II]
- Antibacterial activity (V. cholerae): particularly active
- Antibacterial activity (B. cereus): particularly active
- Antibacterial activity (S. dysenteriae): particularly active

Compound: Cc1cccc2c1nc(-c1ccc(Cl)c([N+](=O)[O-])c1)n2Cc1ccc(Cl)c([N+](=O)[O-])c1 [C00039]
- IC50 (α-glucosidase; read-out: α-Glucosidase IC50, mean ± SD, three independent assays): 7.1 ± 2.1 µM

Compound: Cc1c(C)c2c(c(C)c1O)CCC(C)(C(=O)O)O2 (stereo not drawn) [Trolox, reference compound]
- EC50 [1]: 25.3 ± 0.9 µM
- EC50 [2]: 24.4 ± 0.2 µM

Compound: Cc1cccc2c1nc(-c1ccc(Br)c(Br)c1)n2Cc1ccc(Br)c(Br)c1 [C00036]
- inhibition at 50 µM (α-glucosidase; [5]): 38.2 ± 7.4%
- inhibition at 50 µM [3]: 35.7 ± 3%

Compound: O=[N+]([O-])c1cc(Cn2c(-c3ccc(Cl)c([N+](=O)[O-])c3)nc3ccccc32)ccc1Cl [C00031]
- inhibition at 50 µM (α-glucosidase; [5]): 9.2 ± 1.6%
- inhibition at 50 µM [3]: 10.2 ± 6.41%

Compound: Cc1cccc2c1nc(-c1cc(O)c(O)c(O)c1)n2Cc1cc(O)c(O)c(O)c1 [C00038]
- α-Glucosidase % inib. at 50 μM (α-glucosidase; [7]): 97.5 ± 0.5%

Compound: Cc1cccc2c1nc(-c1ccc(Cl)c([N+](=O)[O-])c1)n2Cc1ccc(Cl)c([N+](=O)[O-])c1 [C00032]
- α-Glucosidase % inib. at 50 μM (α-glucosidase; [7]): 71.2 ± 11.4%
- inhibition at 50 µM [3]: 14 ± 0.15%

Compound: Cc1cccc2c1nc(-c1ccc(O)c([N+](=O)[O-])c1)n2Cc1ccc(O)c([N+](=O)[O-])c1 [C00035]
- inhibition at 50 µM (α-glucosidase; [5]): 3.7 ± 1.4%
- inhibition at 50 µM [3]: 4.3 ± 2.1%

Compound: c1ccc(Cn2c(-c3ccccc3)nc3ccccc32)cc1 [I]
- Antibacterial activity (V. cholerae): particularly active
- Antibacterial activity (B. cereus): particularly active
- Antibacterial activity (S. dysenteriae): particularly active

Compound: Cc1cccc2c1nc(-c1cc(O)c(O)c(O)c1)n2Cc1cc(O)c(O)c(O)c1 [C00041]
- IC50 (α-glucosidase; [6]): 0.39 ± 0.04 µM

Compound: COc1ccccc1Cn1c(-c2ccccc2OC)nc2c(C)cccc21 [C00034]
- inhibition at 50 µM (α-glucosidase; [5]): 35.3 ± 6.8%
- inhibition at 50 µM [3]: 3.2 ± 2.3%

Compound: Cc1cccc2c1nc(-c1ccc(Cl)c([N+](=O)[O-])c1)n2Cc1ccc(Cl)c([N+](=O)[O-])c1 [8k, 1-(4-Chloro-3-nitrobenzyl)-2-(4-chloro-3-nitrophenyl)-4-methyl-1H-benzo[d]imidazole]
- IC50 (α-glucosidase): 7.1 µM
- inhibition at 50 µM (α-glucosidase; pH 6.8, read-out: α-Glucosidase % inib. at 50 μM): 71.2%
- Cytotoxicity / effect on Caco-2 cell viability (Caco-2 cells): none of these compounds affected Caco-2 cell viability; also recorded: no cytotoxic effects
- DPPH EC50 [1]: no detectable antioxidant activity
- ABTS EC50 [2]: no detectable antioxidant activity
